Source: BindingDB's records for doi:10.1021/acschembio.7b00041 (Bc Cancer Agency, 2017)

Columns and labels:
Assay in all cases: ATPase enzyme assay
[1] = molecular target: Eukaryotic initiation factor 4A-III (Homo sapiens, UniProt P38919)
Protocol: (§1) Inhibitory activity was assessed under the following conditions: 350 uM ATP/1.5 ug mL−1 RNA indicated by black; 35 uM ATP/1.5 ug mL−1 RNA indicated by red; 3.5 uM ATP/1.5 ug mL−1 RNA indicated by blue; 35 uM ATP/60 ug mL−1 RNA indicated by green (n = 4, mean +/- standard deviation).

[2] = molecular target: Eukaryotic initiation factor 4A-II (Homo sapiens, UniProt Q14240)
Sequence of Eukaryotic initiation factor 4A-II (Q14240 whole entry): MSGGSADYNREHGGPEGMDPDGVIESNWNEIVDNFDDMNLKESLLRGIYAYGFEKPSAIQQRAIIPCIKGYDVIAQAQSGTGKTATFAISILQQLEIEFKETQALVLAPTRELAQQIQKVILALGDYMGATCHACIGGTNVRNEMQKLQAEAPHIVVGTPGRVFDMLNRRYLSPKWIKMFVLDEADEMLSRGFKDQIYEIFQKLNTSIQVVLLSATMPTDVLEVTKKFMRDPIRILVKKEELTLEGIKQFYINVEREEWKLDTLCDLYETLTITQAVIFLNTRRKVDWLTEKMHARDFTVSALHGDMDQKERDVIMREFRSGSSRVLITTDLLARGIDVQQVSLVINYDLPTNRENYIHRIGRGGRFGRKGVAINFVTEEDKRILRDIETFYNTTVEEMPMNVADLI
Protocol: as §1

[3] = molecular target: U5 small nuclear ribonucleoprotein 200 kDa helicase (Homo sapiens, UniProt O75643)
Sequence of U5 small nuclear ribonucleoprotein 200 kDa helicase (O75643 whole entry): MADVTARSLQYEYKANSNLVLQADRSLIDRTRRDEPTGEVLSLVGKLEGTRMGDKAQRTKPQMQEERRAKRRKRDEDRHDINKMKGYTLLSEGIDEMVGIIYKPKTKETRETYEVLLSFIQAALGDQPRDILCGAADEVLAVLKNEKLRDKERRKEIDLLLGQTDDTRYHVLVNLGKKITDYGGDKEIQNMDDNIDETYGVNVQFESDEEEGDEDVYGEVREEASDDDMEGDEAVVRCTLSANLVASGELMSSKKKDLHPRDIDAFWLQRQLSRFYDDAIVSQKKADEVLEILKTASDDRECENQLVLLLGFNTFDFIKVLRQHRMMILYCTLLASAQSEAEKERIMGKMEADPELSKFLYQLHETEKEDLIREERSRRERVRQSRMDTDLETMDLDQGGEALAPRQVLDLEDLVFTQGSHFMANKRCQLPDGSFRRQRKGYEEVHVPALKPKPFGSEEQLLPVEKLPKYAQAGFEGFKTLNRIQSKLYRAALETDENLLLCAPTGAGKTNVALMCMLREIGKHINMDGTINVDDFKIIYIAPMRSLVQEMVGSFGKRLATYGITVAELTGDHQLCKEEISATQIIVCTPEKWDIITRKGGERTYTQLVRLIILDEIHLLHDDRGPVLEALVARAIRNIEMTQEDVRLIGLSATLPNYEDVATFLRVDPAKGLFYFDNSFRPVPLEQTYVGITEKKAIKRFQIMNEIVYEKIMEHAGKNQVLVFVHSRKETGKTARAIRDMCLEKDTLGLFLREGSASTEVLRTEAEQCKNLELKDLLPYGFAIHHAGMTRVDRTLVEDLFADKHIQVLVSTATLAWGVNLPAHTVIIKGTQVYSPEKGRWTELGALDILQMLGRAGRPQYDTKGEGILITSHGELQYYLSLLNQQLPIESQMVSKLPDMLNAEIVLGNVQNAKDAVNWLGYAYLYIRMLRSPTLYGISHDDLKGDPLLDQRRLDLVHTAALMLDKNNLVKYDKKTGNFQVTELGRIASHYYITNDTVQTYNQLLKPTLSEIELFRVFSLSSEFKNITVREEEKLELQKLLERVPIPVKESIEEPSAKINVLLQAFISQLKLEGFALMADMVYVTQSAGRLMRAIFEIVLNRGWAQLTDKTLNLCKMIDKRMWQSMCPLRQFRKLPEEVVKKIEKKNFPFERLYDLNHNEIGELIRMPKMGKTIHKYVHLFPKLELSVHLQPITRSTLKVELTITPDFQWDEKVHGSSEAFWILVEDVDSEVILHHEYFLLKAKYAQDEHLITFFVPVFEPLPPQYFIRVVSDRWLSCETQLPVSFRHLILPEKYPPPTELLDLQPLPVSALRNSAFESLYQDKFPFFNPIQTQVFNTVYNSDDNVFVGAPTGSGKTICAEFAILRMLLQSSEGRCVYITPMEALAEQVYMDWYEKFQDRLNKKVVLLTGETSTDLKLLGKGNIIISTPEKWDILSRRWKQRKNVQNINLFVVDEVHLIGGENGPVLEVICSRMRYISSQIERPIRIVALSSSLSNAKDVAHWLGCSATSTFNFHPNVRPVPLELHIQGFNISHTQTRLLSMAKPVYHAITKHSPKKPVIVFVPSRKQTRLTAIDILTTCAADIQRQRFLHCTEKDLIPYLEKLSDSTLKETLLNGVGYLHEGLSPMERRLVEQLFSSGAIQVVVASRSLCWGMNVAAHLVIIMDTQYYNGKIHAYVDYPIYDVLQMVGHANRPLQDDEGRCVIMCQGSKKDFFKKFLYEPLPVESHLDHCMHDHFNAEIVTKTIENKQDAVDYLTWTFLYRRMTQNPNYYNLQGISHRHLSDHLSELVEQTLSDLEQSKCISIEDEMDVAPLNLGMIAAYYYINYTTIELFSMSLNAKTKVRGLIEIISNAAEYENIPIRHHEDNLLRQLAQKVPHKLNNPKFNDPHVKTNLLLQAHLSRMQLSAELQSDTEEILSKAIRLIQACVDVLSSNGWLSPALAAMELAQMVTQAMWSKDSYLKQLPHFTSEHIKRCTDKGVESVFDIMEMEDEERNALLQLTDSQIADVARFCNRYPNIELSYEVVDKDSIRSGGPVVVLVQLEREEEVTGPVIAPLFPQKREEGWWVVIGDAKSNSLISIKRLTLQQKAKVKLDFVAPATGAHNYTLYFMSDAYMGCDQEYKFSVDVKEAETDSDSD
Protocol: as §1

[4] = molecular target: Eukaryotic initiation factor 4A-I (Homo sapiens, UniProt P60842)
Sequence of Eukaryotic initiation factor 4A-I (P60842 whole entry): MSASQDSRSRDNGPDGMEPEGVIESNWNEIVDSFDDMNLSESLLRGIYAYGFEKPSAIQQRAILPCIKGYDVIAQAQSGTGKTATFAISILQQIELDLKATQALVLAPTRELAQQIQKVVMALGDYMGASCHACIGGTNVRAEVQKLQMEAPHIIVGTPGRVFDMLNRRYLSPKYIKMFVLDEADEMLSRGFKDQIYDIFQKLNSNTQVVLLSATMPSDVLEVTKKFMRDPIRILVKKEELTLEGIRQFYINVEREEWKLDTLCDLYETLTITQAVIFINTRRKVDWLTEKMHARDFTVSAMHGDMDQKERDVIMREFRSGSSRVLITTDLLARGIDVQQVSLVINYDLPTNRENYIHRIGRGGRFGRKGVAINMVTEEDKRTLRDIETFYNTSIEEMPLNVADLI
Protocol: as §1

[5] = molecular target: T1, ATP-dependent RNA helicase DHX29 (Homo sapiens, UniProt Q7Z478)
T1 sequence (Q7Z478 whole entry): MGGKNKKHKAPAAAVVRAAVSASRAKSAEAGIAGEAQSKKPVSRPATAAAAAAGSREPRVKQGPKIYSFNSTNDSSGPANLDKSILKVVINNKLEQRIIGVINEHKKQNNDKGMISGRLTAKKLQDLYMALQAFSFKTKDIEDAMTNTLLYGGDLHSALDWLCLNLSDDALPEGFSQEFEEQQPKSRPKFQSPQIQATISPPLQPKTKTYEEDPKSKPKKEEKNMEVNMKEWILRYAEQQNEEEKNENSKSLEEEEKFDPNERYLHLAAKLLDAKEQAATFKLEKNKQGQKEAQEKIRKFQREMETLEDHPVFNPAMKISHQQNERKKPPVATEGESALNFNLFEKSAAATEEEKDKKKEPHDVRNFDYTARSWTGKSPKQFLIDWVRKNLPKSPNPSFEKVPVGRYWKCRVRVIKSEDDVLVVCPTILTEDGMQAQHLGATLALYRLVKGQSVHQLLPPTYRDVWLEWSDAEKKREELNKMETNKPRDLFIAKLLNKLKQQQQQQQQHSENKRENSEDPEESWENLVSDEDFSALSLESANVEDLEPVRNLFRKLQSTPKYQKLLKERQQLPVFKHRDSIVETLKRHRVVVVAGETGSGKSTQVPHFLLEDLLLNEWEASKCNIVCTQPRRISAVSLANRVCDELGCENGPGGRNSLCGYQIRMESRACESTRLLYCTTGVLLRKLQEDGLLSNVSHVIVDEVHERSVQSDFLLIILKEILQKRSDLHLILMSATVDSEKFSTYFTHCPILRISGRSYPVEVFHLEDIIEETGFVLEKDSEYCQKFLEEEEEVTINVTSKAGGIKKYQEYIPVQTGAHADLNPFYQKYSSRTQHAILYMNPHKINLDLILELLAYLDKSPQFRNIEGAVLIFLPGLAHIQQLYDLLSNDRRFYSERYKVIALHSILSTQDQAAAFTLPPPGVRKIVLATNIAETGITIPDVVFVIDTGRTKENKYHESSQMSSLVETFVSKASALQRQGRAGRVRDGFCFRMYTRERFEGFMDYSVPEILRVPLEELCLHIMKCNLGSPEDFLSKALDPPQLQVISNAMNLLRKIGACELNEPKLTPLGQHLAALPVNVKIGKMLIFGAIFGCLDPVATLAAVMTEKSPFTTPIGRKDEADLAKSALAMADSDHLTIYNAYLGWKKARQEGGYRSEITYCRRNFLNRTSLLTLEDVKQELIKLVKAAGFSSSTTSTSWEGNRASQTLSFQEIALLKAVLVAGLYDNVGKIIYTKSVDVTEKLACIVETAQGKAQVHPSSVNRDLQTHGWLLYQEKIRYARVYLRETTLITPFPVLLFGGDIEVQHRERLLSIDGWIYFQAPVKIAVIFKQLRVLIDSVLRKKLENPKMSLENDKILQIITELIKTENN
Protocol: as §1

Sequence of Eukaryotic initiation factor 4A-III (P38919 whole entry): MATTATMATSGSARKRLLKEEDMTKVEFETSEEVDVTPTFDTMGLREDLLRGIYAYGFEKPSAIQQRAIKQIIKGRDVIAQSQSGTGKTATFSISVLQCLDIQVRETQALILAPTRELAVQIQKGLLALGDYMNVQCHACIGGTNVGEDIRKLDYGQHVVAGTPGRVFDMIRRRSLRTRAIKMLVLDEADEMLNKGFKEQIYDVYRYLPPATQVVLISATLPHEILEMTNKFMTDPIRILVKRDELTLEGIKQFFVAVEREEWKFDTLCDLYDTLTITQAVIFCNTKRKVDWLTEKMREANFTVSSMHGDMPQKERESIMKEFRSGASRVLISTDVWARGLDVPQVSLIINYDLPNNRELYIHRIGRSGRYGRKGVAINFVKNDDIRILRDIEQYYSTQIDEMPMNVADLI

O=C(c1cnn2cc(Br)ccc12)N1CCN(C(=O)c2ccc(Br)cc2)[C@@H](c2ccc(Cl)cc2)C1 [eIF4A3 inhibitor, 2]
IC50 [1]: 0.11 µM
IC50 [2]: > 100 µM
IC50 [3]: > 100 µM
IC50 [4]: > 100 µM
IC50 [5]: > 100 µM
